Source: the supplement of paper PMC11061612

Tests used:
Experiment in all cases: Bliss excess, mean over the matrix (fraction); higher = more synergy
[1] = system: C3A (Hepatocellular Carcinoma)
Method in brief: (§1)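 Cell lines in DMEM/F12 or RPMI with 10% FBS were plated in 1536-well plates, held 24 hours at 37°C, 5% CO2, then given two-drug dose matrices for 72 hours (DMSO typically 0.2%). Viability was read by CellTiter-Glo 2.0 luminescence and scaled as inhibition from 0 (vehicle wells) to 1 (blank wells). Combination Emax is the second-highest inhibition in the matrix; Bliss excess is observed combination effect minus expected EA + EB − EA·EB, EA and EB being single-agent effects.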

CAL-78 (Chondrosarcoma) = system: CAL-78 (Chondrosarcoma)
Method in brief: as §1

[2] = system: DMS-273 (Small Cell Lung Carcinoma)
Method in brief: as §1

[3] = system: EM-2 (Chronic Myelogenous Leukemia)
Method in brief: as §1

ES7 (Ewing's Sarcoma) = system: ES7 (Ewing's Sarcoma)
Method in brief: as §1

[4] = system: HT-29 (Colorectal Carcinoma)
Method in brief: as §1

IGR-1 (Melanoma) = system: IGR-1 (Melanoma)
Method in brief: as §1

J82 (Bladder Carcinoma) = system: J82 (Bladder Carcinoma)
Method in brief: as §1

[5] = system: KARPAS-1106P (B-Cell Non-Hodgkin's Lymphoma)
Method in brief: as §1

[6] = system: KATOIII (Gastric Carcinoma)
Method in brief: as §1

[7] = system: MDA-MB-157 (Breast Carcinoma)
Method in brief: as §1

[8] = system: MFH-ino (Other Solid Carcinomas)
Method in brief: as §1

[9] = system: NCI-H1299 (Non-Small Cell Lung Carcinoma)
Method in brief: as §1

[10] = system: NCI-H1781 (Lung Adenocarcinoma)
Method in brief: as §1

[11] = system: NCI-H1793 (Lung Adenocarcinoma)
Method in brief: as §1

[12] = system: OCI-AML2 (Acute Myeloid Leukemia)
Method in brief: as §1

[13] = system: SUIT-2 (Pancreatic Carcinoma)
Method in brief: as §1

[14] = system: SW1783 (Low Grade Glioma)
Method in brief: as §1

[15] = system: SW756 (Cervical Carcinoma)
Method in brief: as §1

[16] = system: TGBC24TKB (Biliary Tract Carcinoma)
Method in brief: as §1

SMILES	Bliss excess [1]	Bliss excess (CAL-78 (Chondrosarcoma))	Bliss excess [2]	Bliss excess [3]	Bliss excess (ES7 (Ewing's Sarcoma))	Bliss excess [4]	Bliss excess (IGR-1 (Melanoma))	Bliss excess (J82 (Bladder Carcinoma))	Bliss excess [5]	Bliss excess [6]	Bliss excess [7]	Bliss excess [8]	Bliss excess [9]	Bliss excess [10]	Bliss excess [11]	Bliss excess [12]	Bliss excess [13]	Bliss excess [14]	Bliss excess [15]	Bliss excess [16]
CN(C)CCCOc1ccc(-c2ccc3ncc4c(c3c2)n(C2CCOCC2)c(=O)n4C)cn1 [AZD0156] + O=C(c1cc(Cc2n[nH]c(=O)c3ccccc23)ccc1F)N1CCN(C(=O)C2CC2)CC1 [Olaparib] (first compound max 3 µM, partner max 3 µM)	-0.0171	0.0042	0.155	0.0753	0.291	0.015	-0.0006	-0.0375	0.0471	-0.0125	-0.0302	-0.061	0.0495	0.0077	0.0074	0.171	0.028	0.007	-0.0192	0.0104
C[C@@H]1COCCN1c1cc(C2([S@](C)(=N)=O)CC2)nc(-c2ccnc3[nH]ccc23)n1 [AZD6738] + O=C(c1cc(Cc2n[nH]c(=O)c3ccccc23)ccc1F)N1CCN(C(=O)C2CC2)CC1 [Olaparib] (first compound max 10 µM, 7x7, partner max 10 µM)	-0.0039	0.0285	-0.0473	0.0026	0.0469	-0.0014	0.0059	0.031	-0.0236	-0.0286	-0.0453	0.0189	-0.0365	-0.0218	-0.0153	0.0013	-0.0264	0.0376	-0.0158	-0.0113
Cc1cc2ncnn2cc1Nc1ncc2c(n1)n(C1CCOCC1)c(=O)n2C [AZD7648] + CCN(CCO)CCCOc1ccc2c(Nc3cc(CC(=O)Nc4cccc(F)c4)[nH]n3)ncnc2c1 [AZD2811] (first compound max 10 µM, 7x7, partner max 1 µM)	0.0219	-0.0053	-0.0368	-0.073	-0.0538	0.0227	-0.0224	-0.0488	0.0642	-0.0526	0.0572	-0.0094	0.0093	0.0239	-0.005	-0.0004	-0.0169	0.0063	-0.0209	-0.0157
CN(C)CCCOc1ccc(-c2ccc3ncc4c(c3c2)n(C2CCOCC2)c(=O)n4C)cn1 [AZD0156] + CCN(CCO)CCCOc1ccc2c(Nc3cc(CC(=O)Nc4cccc(F)c4)[nH]n3)ncnc2c1 [AZD2811] (first compound max 1 µM, 7x7, partner max 1 µM)	-0.0792	0.006	0.0307	-0.0445	-0.0172	-0.0109	-0.0235	0.0201	-0.0003	-0.0366	-0.0069	-0.0453	-0.021	0.0374	-0.0309	0.0665	-0.0029	-0.0452	-0.016	-0.0009
CC(=O)c1c(C)c2cnc(Nc3ccc(N4CCNCC4)cn3)nc2n(C2CCCC2)c1=O [Palbociclib] + Cn1cnc2c(F)c(Nc3ccc(Br)cc3Cl)c(C(=O)NOCCO)cc21 [Selumetinib] (first compound max 10 µM, 7x7, partner max 10 µM)	-0.0011	-0.0463	-0.0393	0.0533	0.0067	0.0336	0.0661	-0.0538	0.0399	0.0393	-0.0396	-0.0237	0.108	-0.0532	-0.012	0.0685	0.0481	-0.0447	-0.0736	0.0495
CCc1c2c(nc3ccc(O)cc13)-c1cc3c(c(=O)n1C2)COC(=O)[C@]3(O)CC [SN-38] + O=C(c1cc(Cc2n[nH]c(=O)c3ccccc23)ccc1F)N1CCN(C(=O)C2CC2)CC1 [Olaparib] (first compound max 0.3 µM, 7x7, partner max 10 µM)	0.0041	–	0.0129	0.0606	0.112	0.0396	0.0115	0.0532	-0.0008	-0.0478	0.0102	0.0254	0.129	0.0788	–	0.0787	-0.0211	0.061	-0.0109	0.0421
COc1nnc2ccc(N3CCC(c4ccc(OCCN5CCN(C)C(=O)[C@H]5C)cc4)CC3)nn12 [AZD5153] + Cn1cnc2c(F)c(Nc3ccc(Br)cc3Cl)c(C(=O)NOCCO)cc21 [Selumetinib] (first compound max 1 µM, 7x7, partner max 10 µM)	-0.0272	-0.0315	-0.0661	0.0468	-0.0502	-0.0281	0.0544	0.014	0.013	-0.0294	0.0292	-0.0031	-0.0243	-0.0085	0.0212	0.0311	0.0227	-0.0214	0.0167	0.158
Cc1cc2ncnn2cc1Nc1ncc2c(n1)n(C1CCOCC1)c(=O)n2C [AZD7648] + O=C(c1cc(Cc2n[nH]c(=O)c3ccccc23)ccc1F)N1CCN(C(=O)C2CC2)CC1 [Olaparib] (first compound max 10 µM, 7x7, partner max 10 µM)	-0.0505	-0.0726	0.0268	0.0036	-0.0569	-0.0265	-0.0032	0.0357	-0.0538	-0.0367	-0.0251	-0.0705	-0.03	-0.0204	-0.0616	-0.0289	0.0151	-0.042	-0.0174	-0.0128
NC1(C(=O)N[C@@H](CCO)c2ccc(Cl)cc2)CCN(c2ncnc3[nH]ccc23)CC1 [Capivasertib] + CCN(CCO)CCCOc1ccc2c(Nc3cc(CC(=O)Nc4cccc(F)c4)[nH]n3)ncnc2c1 [AZD2811] (first compound max 10 µM, 7x7, partner max 1 µM)	-0.0156	0.024	-0.0015	-0.0463	-0.0354	-0.0137	0.0077	-0.0018	0.0426	-0.0213	0.0354	-0.0542	0.0012	-0.0433	-0.0515	0.0134	-0.0074	-0.0236	-0.0299	0.0111
CC(=O)c1c(C)c2cnc(Nc3ccc(N4CCNCC4)cn3)nc2n(C2CCCC2)c1=O [Palbociclib] + CN(CC[C@H](CSC1=CC=CC=C1)NC2=C(C=C(C=C2)S(=O)(=O)NC(=O)C3=CC=C(C=C3)N4CCC(CC4)[C@H](C5=CC=CC=C5C6=CC=C(C=C6)Cl)O)S(=O)(=O)C(F)(F)F)CCO [AZD4320] (first compound max 10 µM, 7x7, partner max 1 µM)	-0.0358	-0.0873	-0.106	-0.0899	–	-0.0271	-0.0387	-0.0667	–	–	–	–	–	-0.0811	-0.0299	–	-0.0937	–	-0.0883	-0.0727
Cc1c2c(nn1C)CSCc1cc(n(C)n1)CSc1cc(c3ccccc3c1)OCCCc1c(C(=O)O)n(C)c3c-2c(Cl)ccc13 [AZD5991] + C=CCn1c(=O)c2cnc(Nc3ccc(N4CCN(C)CC4)cc3)nc2n1-c1cccc(C(C)(C)O)n1 [AZD1775] (first compound max 1 µM, partner max 1 µM)	0.0084	-0.0193	-0.0476	-0.0674	0.0155	-0.0045	0.061	-0.0372	-0.011	-0.029	0.001	0.0604	-0.0048	-0.054	-0.0329	-0.0366	0.0014	–	-0.013	-0.0375
Cc1c2c(nn1C)CSCc1cc(n(C)n1)CSc1cc(c3ccccc3c1)OCCCc1c(C(=O)O)n(C)c3c-2c(Cl)ccc13 [AZD5991] + Cc1cc2ncnn2cc1Nc1ncc2c(n1)n(C1CCOCC1)c(=O)n2C [AZD7648] (first compound max 1 µM, 7x7, partner max 10 µM)	-0.0312	-0.0448	-0.0113	0.0206	-0.028	0.0049	-0.0642	-0.0231	-0.0016	-0.0305	-0.0214	-0.018	-0.0436	-0.105	-0.0112	0.019	–	-0.0408	-0.0367	-0.0102
C[C@@H](c1ccc2nccn2c1)n1nnc2ncc(-c3cnn(C)c3)nc21 [Savolitinib] + CN(CC[C@H](CSC1=CC=CC=C1)NC2=C(C=C(C=C2)S(=O)(=O)NC(=O)C3=CC=C(C=C3)N4CCC(CC4)[C@H](C5=CC=CC=C5C6=CC=C(C=C6)Cl)O)S(=O)(=O)C(F)(F)F)CCO [AZD4320] (first compound max 1 µM, 7x7, partner max 1 µM)	-0.0604	-0.0906	-0.0126	-0.0531	–	-0.0245	-0.0913	0.0168	–	–	–	–	–	-0.053	-0.0329	–	0.0046	–	-0.0319	0.0233
C=CCn1c(=O)c2cnc(Nc3ccc(N4CCN(C)CC4)cc3)nc2n1-c1cccc(C(C)(C)O)n1 [AZD1775] + C1CN(CCC1(C(=O)N[C@@H](CCO)C2=CC=C(C=C2)Cl)N)C3=NC=NC4=C3C=CN4 [Capivasertib] (first compound max 3 µM, partner max 3 µM)	-0.0262	-0.0614	-0.0053	-0.0724	–	-0.0357	0.011	-0.0184	0.0135	-0.0773	-0.0818	-0.0204	-0.0756	-0.096	0.0373	-0.0405	-0.017	-0.0787	-0.0075	-0.034
COc1nnc2ccc(N3CCC(c4ccc(OCCN5CCN(C)C(=O)[C@H]5C)cc4)CC3)nn12 [AZD5153] + CN(CC[C@H](CSC1=CC=CC=C1)NC2=C(C=C(C=C2)S(=O)(=O)NC(=O)C3=CC=C(C=C3)N4CCC(CC4)[C@H](C5=CC=CC=C5C6=CC=C(C=C6)Cl)O)S(=O)(=O)C(F)(F)F)CCO [AZD4320] (first compound max 1 µM, 7x7, partner max 1 µM)	0.0705	0.132	0.0043	-0.0442	–	-0.0111	0.197	0.0292	–	–	–	–	–	-0.0212	0.039	–	0.005	–	0.0196	0.0326
